Test results from article PMC11539229 (Antimicrobial Agents and Chemotherapy, 2024).
≈ marks a conversion by molar mass, not a printed value. Read-outs that look alike come from different tables or passages of the source.

Key:
[1] = Procedure: The Ames assay was carried out as previously described ([34]) using all strains.
[2] = system: HepG2 cells; format: cell-based; conditions: human, 48 h
Procedure: HepG2 cells were cultured using Eagle’s minimum essential media (EMEM) supplemented with 10% heat-inactivated FBS, 1% non-essential amino acid (NEAA), and 1% penicillin/streptomycin. Prior to addition of the cell suspension, 250 nL of test compounds per well was pre-dispensed in tissue culture-treated black clear-bottomed 384-well plates (Greiner, cat. no. 781091) with an Echo 555 instrument. After that, 25 µL of HepG2 (cat. no. ATCC HB-8065) cells (∼3,000 cells/well) grown to confluency in EMEM supplemented with 10% heat-inactivated FBS, 1% NEAA, and 1% penicillin/streptomycin were added to each well with the reagent dispenser. Plates were allowed to incubate at 37°C with 20% O2 and 5% CO2 for 48 hrs. After incubation, the plates were equilibrated to room temperature before ATP levels were measured with the CellTiter Glo kit (Promega) as the cell viability read-out. 25 µL of CellTiter Glo substrate dissolved in the buffer was added to each well. Plates were incubated at room temperature for 10 min for stabilization of luminescence signal and read on a View Lux luminometer with excitation and emission filters of 613 and 655 nm, respectively. The Tox50 value corresponds to the concentration of the compound necessary to inhibit 50% of cell growth.

[3] = system: M. tuberculosis H37Rv; assay: Extracellular MIC, broth dilution with resazurin; format: cell-based; conditions: Mycobacterium tuberculosis, read-out: Mtb MIC
Procedure: MICs against the H37Rv strain were determined by broth dilution assay in Middlebrook 7H9 medium supplemented with 10% ADC. After incubating at 37°C for 6 days, 25-µL resazurin solution (one tablet in 30-mL sterile PBS) was added to each well. Following incubation at 37°C for two additional days, the lowest concentration of drug that inhibited 90% of resazurin conversion compared to internal DMSO control wells with no drug added was used to define MIC values.

[4] = molecular target: hERG (Homo sapiens, UniProt Q12809); assay: hERG Qpatch; format: biochemical
Procedure: hERG activity was measured as previously described ([35]).

[5] = format: in vitro ADME
Procedure: To assess the susceptibility of GSK138 to P450-mediated phase I metabolism, metabolic stability was determined during incubation in CD1 mouse, Sprague Dawley rat, beagle dog, and human liver microsomes.
Human and animal microsomes and compounds were pre-incubated at 37°C prior to addition of NADPH to final protein concentration of 0.5 mg/mL and a final compound concentration of 0.5 µM. Quantitative analysis was performed using specific liquid chromatography-tandem mass spectrometry (LC-MS/MS) conditions. The half-life, elimination rate constant, and intrinsic clearance (mL/min/g tissue) were determined. The well-stirred model was used to translate to in vivo CI values (mL/min/kg).

[6] = system: Madin-Darby canine kidney-MDR1; assay: in vitro; format: in vitro ADME
Procedure: (§1) Studies were performed as described by Polli et al. ([31]), with minor modifications. GF120918 was used as the inhibitor of P-gp. Apical-to-basolateral and basolateral-to-apical transports were studied across MDR1-MDCKII cell monolayers in the absence and presence of the P-gp inhibitor GF120918, and the Papp (intrinsic apparent permeability) was estimated in both directions with or without inhibitor.

[7] = in vitro; format: in vitro ADME, canine; conditions: dog, MDCK-MDR1
Procedure: as §1

[8] = system: HepG2 cells; assay: Cell health assay (three-parameter imaging); format: cell-based, human
Procedure: This is a three-parameter automated imaging cell-based assay to measure the cytotoxic effect of compounds in human liver-derived HepG2 cells. Using fluorescent staining, we measured the following key parameters in this assay: nuclear size, mitochondrial membrane potential and plasma membrane permeability. HepG2 cells (ATCC HB-8065) were incubated with the test compounds in 384-well plates. After 48 h, the staining cocktail was added. Hoechst 33342 was used to stain nuclei and quantify changes in nuclear morphology. Tetramethylrhodamine, methyl ester is a cationic dye that accumulates in healthy mitochondria that maintain a mitochondrial membrane potential and leaks out of mitochondria when the mitochondrial membrane potential is dissipated. TOTO-3 iodide labels nuclei of permeabilized cells and is used to measure plasma membrane permeability. Following 45 min of incubation with these stains, the plates were sealed using a black seal for reading on an INCell Analyzer 2000 (GE Healthcare). Each parameter measurement produces the percentages of cells which are “live” or “dead.” The IC50 is defined as the compound concentration that inhibits 50% of cell growth.

[9] = system: drug-susceptible, MDR and XDR M.tb clinical isolates; assay: microbe, parasite or virus in culture; format: cell-based, M. tuberculosis; conditions: Mycobacterium tuberculosis
[10] = in vivo; parameters: species or system C57BL/6 mice; conditions: iv, 1 mg/kg
Procedure: To determine the pharmacokinetic parameters, GSK138 was administered intravenously [formulation: 5% dimethyl sulfoxide (DMSO)/20% Encapsin in saline solution] as a single bolus dose in C57BL/6 mice at a target dose of 1 mg/kg. All pharmacokinetic parameters were determined in whole blood (Table 1). A moderate clearance and a moderate volume of distribution were observed.
Single-dose pharmacokinetics experiments were performed in female C57BL/6 mice, 21–29 g, obtained from Charles River Laboratories (Wilmington, MA, USA) and housed in cages in groups of three animals with water and food ad libitum. Animals were maintained for 1 week before the experiment.
The compound was dissolved in 20% Encapsin (Sigma-Aldrich), 5% DMSO (Sigma-Aldrich) in saline solution (Sigma-Aldrich) for intravenous administration, and in 1% methylcellulose (Sigma-Aldrich) in water for oral administration.
For PK analysis, 25 µL of tail blood was collected by microsampling at 0.08, 0.25, 0.5, 1.0, 2.0, 4.0, 6.0, 8.0, and 24.0 h for intravenous pharmacokinetics and 0.25, 0.5, 1.0, 2.0, 4.0, 6.0, 8.0, and 24.0 h for oral pharmacokinetics.

[11] = system: H37Rv-Luc inside THP-1-derived macrophages; assay: Intracellular MIC in THP-1-derived macrophages, luciferase read-out; format: cell-based, M. tuberculosis; conditions: Mycobacterium tuberculosis, mean ± SD, read-out: Mtb intracell MIC
[12] = system: M. tuberculosis H37Rv; assay: Acute murine model of intratracheal infection; format: in vivo, C57BL/6 mice; conditions: oral once daily for 8 days

Sequence of hERG (Q12809 whole entry): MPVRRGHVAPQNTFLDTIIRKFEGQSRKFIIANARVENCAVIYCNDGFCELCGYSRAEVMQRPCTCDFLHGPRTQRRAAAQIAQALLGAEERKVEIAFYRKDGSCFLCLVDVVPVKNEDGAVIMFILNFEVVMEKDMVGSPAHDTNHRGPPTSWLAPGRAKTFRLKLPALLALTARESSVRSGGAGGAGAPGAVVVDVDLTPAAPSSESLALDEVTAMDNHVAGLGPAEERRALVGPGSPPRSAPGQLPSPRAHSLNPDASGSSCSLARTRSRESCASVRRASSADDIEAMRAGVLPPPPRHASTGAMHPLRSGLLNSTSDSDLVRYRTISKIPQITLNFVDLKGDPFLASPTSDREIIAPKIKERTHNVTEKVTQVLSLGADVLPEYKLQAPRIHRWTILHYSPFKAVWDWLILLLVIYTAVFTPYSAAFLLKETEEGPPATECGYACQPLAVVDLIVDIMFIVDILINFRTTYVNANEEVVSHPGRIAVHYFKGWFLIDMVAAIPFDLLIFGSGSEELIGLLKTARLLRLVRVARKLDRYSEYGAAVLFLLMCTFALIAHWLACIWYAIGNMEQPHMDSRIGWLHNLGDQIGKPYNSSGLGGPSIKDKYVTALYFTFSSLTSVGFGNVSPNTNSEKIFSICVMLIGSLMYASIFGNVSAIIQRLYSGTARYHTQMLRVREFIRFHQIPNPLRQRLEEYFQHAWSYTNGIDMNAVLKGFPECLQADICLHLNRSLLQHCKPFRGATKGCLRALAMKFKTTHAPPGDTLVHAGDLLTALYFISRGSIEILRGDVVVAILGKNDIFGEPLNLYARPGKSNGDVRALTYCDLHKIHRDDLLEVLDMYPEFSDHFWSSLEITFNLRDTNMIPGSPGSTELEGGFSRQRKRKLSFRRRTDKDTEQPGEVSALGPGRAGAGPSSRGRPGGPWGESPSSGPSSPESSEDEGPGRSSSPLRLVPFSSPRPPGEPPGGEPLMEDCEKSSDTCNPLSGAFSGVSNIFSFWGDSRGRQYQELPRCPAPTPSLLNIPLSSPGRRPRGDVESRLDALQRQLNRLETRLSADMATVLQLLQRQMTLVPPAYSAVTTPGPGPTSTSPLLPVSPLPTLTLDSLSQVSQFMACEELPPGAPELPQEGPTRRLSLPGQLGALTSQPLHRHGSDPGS

For `Cc1csc([C@](C)(O)c2nnc(Nc3cc(C)n(Cc4csc(C)n4)n3)s2)n1` [GSK138], which Ames test [1] is on record?
The Ames test was “Negative”.

What about the “HepG2 cytotoxicity Tox50” value [2] of the same compound?
Its value is >100 µM.

What about the MIC [3] of the same compound?
Its MIC is 1 µM (≈ 0.434 µg/mL).

What about the IC50 [4] of the same compound?
The IC50 was > 30 µM.

What about the “in vitro clearance in liver microsomes” value ([5]; dog) of the same compound?
The value was “moderate”.

And the “in vitro clearance in liver microsomes” value ([5]; human)?
Its value is “low”.

What about the “In vitro Clint dog” value ([5]; microsomes) of the same compound?
The value was 1.7 mL/min/g tissue.

And the “In vitro Clint human” value ([5]; microsomes)?
Its value is 0.3 mL/min/g tissue.

And the “In vitro Clint mouse” value ([5]; microsomes)?
The value was 4.4 mL/min/g tissue.

What about the “In vitro Clint rat” value ([5]; microsomes) of the same compound?
The value was 3.5 mL/min/g tissue.

And the “in vitro clearance in liver microsomes” value ([5]; mouse)?
The value was “moderate”.

What about the “in vitro clearance in liver microsomes” value ([5]; rat) of the same compound?
Its value is “moderate”.

What about the “permeability predicted from MDCK cells” value [6] of the same compound?
Its value is “high”.

What about the Papp [7] of the same compound?
Its Papp is 374 nm/s.

And the “Cell health IC50 (nuclear size, mitochondrial membrane potential, and plasma membrane permeability)” value ([8]; HepG2, 48 h)?
Its value is >199.5 µM.

What about the “effect in the cell health assay” value ([8]; membrane, nuclear and mitochondrial damages) of the same compound?
The value was “no effect up to the highest concentration tested (200 µM)”.

And the MIC90 [9]?
The MIC90 was 3.75 µM (≈ 1.63 µg/mL).

And the Vd ([10]; female, C57BL/6, mouse)?
The Vd was 2.6 ± 0.3 L/kg.

And the clearance ([10]; female, C57BL/6, mouse)?
Its clearance is 4.66 ± 1.01 L/h/kg.

What about the “clearance” value ([10]; mouse) of the same compound?
Its value is “moderate”.

What about the “volume of distribution” value ([10]; mouse) of the same compound?
The value was “moderate”.

What about the MIC [11] of the same compound?
The MIC was 0.9 µM (≈ 0.39 µg/mL).

What about the “effect on bacteria at the highest doses” value [12] of the same compound?
The value was “net killing of the bacteria”.

What about the “ED99 (dose producing a 2-log10 reduction in CFUs compared to untreated control mice)” value ([12]; 95% CI 50–67) of the same compound?
Its value is 57 mg/kg.

What about the “EDmax (dose at which 90% of the maximum bactericidal effect was achieved)” value ([12]; 95% CI 125 to >290) of the same compound?
Its value is 167 mg/kg.
